Assay results reported in patent publication US10294202B2, “Pyrrolidinones as herbicides” (FMC Corporation, priority 2013, dated 2019).

Assays:
bluegrass = experiment: Test D pre-/postemergence herbicide test; format: in vivo, Poa annua; settings: for Plant response rating: Bluegrass, scale 0 to 100; for Plant response rating, Bluegrass: scale 0 to 100 (0 no effect, 100 complete control)
Description: (§1) Seeds of plant species selected from bluegrass (annual bluegrass, Poa annua), blackgrass (Alopecurus myosuroides), canarygrass (littleseed canarygrass, Phalaris minor), chickweed (common chickweed, Stellaria media), galium (catchweed bedstraw, Galium aparine), bromegrass, downy (downy bromegrass, Bromus tectorum), field poppy (Papaver rhoeas), field violet (Viola arvensis), foxtail, green (green foxtail, Setaria viridis), deadnettle (henbit deadnettle, Lamium amplexicaule), ryegrass, Italian (Italian ryegrass, Lolium multiflorum), kochia (Kochia scoparia), lambsquarters (Chenopodium album), oilseed rape (Brassica napus), pigweed (Amaranthus retroflexus), chamomile (scentless chamomile, Matricaria inodora), Russian thistle (Salsola kali), speedwell (bird's-eye speedwell, Veronica persica), barley, spring (spring barley, Hordeum vulgare), wheat, spring (spring wheat, Triticum aestivum), buckwheat, wild (wild buckwheat, Polygonum convolvulus), mustard, wild (wild mustard, Sinapis arvensis), oat, wild (wild oat, Avena fatua), radish, wild (wild radish, Raphanus raphanistrum), […]), barley, winter (winter barley, Hordeum vulgare), and wheat, winter (winter wheat, Triticum aestivum) were planted into a silt loam soil and treated preemergence with test chemicals formulated in a non-phytotoxic solvent mixture which included a surfactant. At the same time, these species were planted in pots containing Redi-Earth® planting medium (Scotts Company, 14111 Scottslawn Road, Marysville, Ohio 43041) comprising spaghnum peat moss, vermiculite, wetting agent and starter nutrients and treated with postemergence applications of the test chemicals formulated in the same manner. Plants ranged in height from 2 to 18 cm (1- to 4-leaf stage). Treated plants and controls were maintained in a controlled growth environment for 7 to 21 days after which time all species were compared to controls and visually evaluated. Plant response ratings, summarized in Table D, are based on a scale of 0 to 100 where 0 is no effect and 100 is complete control. A dash (-) response means no test result.

ryegrass, Italian = experiment: Test D pre-/postemergence herbicide test; format: in vivo, Lolium multiflorum; settings: for Plant response rating: Postemergence, Ryegrass, Italian, scale 0 to 100; for Plant response rating, Ryegrass, Italian: Preemergence, scale 0 to 100 (0 no effect, 100 complete control)
Description: as §1

Russian thistle = experiment: Test D pre-/postemergence herbicide test; format: in vivo, Salsola kali; settings: for Plant response rating: Postemergence, Russian Thistle, scale 0 to 100; for Plant response rating, Russian Thistle: Preemergence, scale 0 to 100 (0 no effect, 100 complete control)
Description: as §1

dayflower, VA = experiment: Test E preemergence herbicide test; format: in vivo, Commelina virginica; parameters: key: 0 = no effect, 100 = complete control
Description: (§2) Seeds of plant species selected from corn (Zea mays), soybean (Glycine max), velvetleaf (Abutilon theophrasti), lambsquarters (Chenopodium album), wild poinsettia (Euphorbia heterophylla), pigweed, palmer (palmer pigweed, Amaranthus palmeri), waterhemp (common waterhemp, Amaranthus rudis), surinam grass (Brachiaria decumbens), crabgrass, large (large crabgrass, Digitaria sanguinalis), crabgrass, Brazil (Brazilian crabgrass, Digitaria horizontalis), panicum, fall (fall panicum, Panicum dichotomiflorum), foxtail, giant (giant foxtail, Setaria faberii), foxtail, green (green foxtail, Setaria viridis), goosegrass (Eleusine indica), johnsongrass (Sorghum halepense), ragweed (common ragweed, Ambrosia elatior), barnyardgrass (Echinochloa crus-galli), sandbur (southern sandbur, Cenchrus echinatus), arrowleaf […] rhombifolia), ryegrass, Italian (Italian ryegrass, Lolium multiflorum), dayflower, VA (Virginia dayflower, Commelina virginica), field bindweed (Convolvulus arvensis), morningglory (Ipomoea coccinea), nightshade (eastern black nightshade, Solanum ptycanthum), kochia (Kochia scoparia), nutsedge, yellow (yellow nutsedge, Cyperus esculentus), cocklebur (common cocklebur, Xanthium strumarium), smartweed (ladysthumb smartweed, Polygonum Persicaria) and beggarticks (hairy beggarticks, Bidens pilosa), were planted into a silt loam soil and treated preemergence with test chemicals formulated in a non-phytotoxic solvent mixture which included a surfactant. Treated plants and controls were maintained in a greenhouse for 21 days, after which time all species were compared to controls and visually evaluated. Plant response ratings, summarized in Table E, are based on a scale of 0 to 100 where 0 is no effect and 100 is complete control. A dash (-) response means no test result.

corn = experiment: Test E preemergence herbicide test; format: in vivo, Zea mays; parameters: key: 0 = no effect, 100 = complete control
Description: as §2

O=C1NCC(c2ccc(F)c(F)c2)C1C(=O)Nc1ccccc1C(F)(F)F (racemic) [Compound 6]
10: Plant response rating, Russian Thistle (Russian thistle; 125 g ai/ha)
0: Plant response rating (bluegrass; Postemergence, 16 g ai/ha) | Plant response rating (bluegrass; Postemergence, 31 g ai/ha) | Plant response rating (bluegrass; Postemergence, 62 g ai/ha) | Plant response rating (bluegrass; Postemergence, 125 g ai/ha) | Plant response rating (bluegrass; Postemergence, 250 g ai/ha) | Plant response rating, Bluegrass (bluegrass; Preemergence, 62 g ai/ha) | Plant response rating, Bluegrass (bluegrass; Preemergence, 16 g ai/ha) | Plant response rating, Bluegrass (bluegrass; Preemergence, 31 g ai/ha) | Plant response rating (bluegrass; Preemergence, 125 g ai/ha) | Plant response rating (bluegrass; Preemergence, 250 g ai/ha) | Plant response rating (ryegrass, Italian; 16 g ai/ha) | Plant response rating (ryegrass, Italian; 31 g ai/ha) | Plant response rating (ryegrass, Italian; 62 g ai/ha) | Plant response rating (ryegrass, Italian; 125 g ai/ha) | Plant response rating (ryegrass, Italian; 250 g ai/ha) | Plant response rating, Ryegrass, Italian (ryegrass, Italian; 62 g ai/ha) | Plant response rating, Ryegrass, Italian (ryegrass, Italian; 125 g ai/ha) | Plant response rating, Ryegrass, Italian (ryegrass, Italian; 16 g ai/ha) | Plant response rating, Ryegrass, Italian (ryegrass, Italian; 31 g ai/ha) | Plant response rating, Ryegrass, Italian (ryegrass, Italian; 250 g ai/ha) | Plant response rating (Russian thistle; 16 g ai/ha) | Plant response rating (Russian thistle; 31 g ai/ha) | Plant response rating (Russian thistle; 62 g ai/ha) | Plant response rating (Russian thistle; 125 g ai/ha) | Plant response rating, Russian Thistle (Russian thistle; 62 g ai/ha) | Plant response rating, Russian Thistle (Russian thistle; 16 g ai/ha) | Plant response rating, Russian Thistle (Russian thistle; 31 g ai/ha)
100: Plant response rating (Russian thistle; 250 g ai/ha)
30: Plant response rating, Russian Thistle (Russian thistle; 250 g ai/ha)

O=C1NCC(c2ccc(Cl)c(Cl)c2)C1C(=O)Nc1ccccc1F (racemic) [Compound 14]
0: Plant response rating, Dayflower, VA (dayflower, VA; 16 g ai/ha) | Plant response rating, Dayflower, VA (dayflower, VA; 31 g ai/ha) | Plant response rating, Dayflower, VA (dayflower, VA; 62 g ai/ha) | Plant response rating, Dayflower, VA (dayflower, VA; 125 g ai/ha) | Plant response rating, Dayflower, VA (dayflower, VA; 250 g ai/ha) | Plant response rating, Corn (corn; 16 g ai/ha) | Plant response rating, Corn (corn; 31 g ai/ha) | Plant response rating, Corn (corn; 62 g ai/ha) | Plant response rating, Corn (corn; 125 g ai/ha) | Plant response rating, Corn (corn; 250 g ai/ha)

O=C1NCC(c2ccc(F)c(C(F)(F)F)c2)C1C(=O)Nc1cccc(F)c1F (racemic) [Compound 77]
35: Plant response rating, Ryegrass, Italian (ryegrass, Italian; 250 g ai/ha)
5: Plant response rating, Bluegrass (bluegrass; Preemergence, 62 g ai/ha)
55: Plant response rating (bluegrass; Preemergence, 250 g ai/ha)
15: Plant response rating, Ryegrass, Italian (ryegrass, Italian; 62 g ai/ha) | Plant response rating, Ryegrass, Italian (ryegrass, Italian; 31 g ai/ha)
0: Plant response rating, Bluegrass (bluegrass; Preemergence, 31 g ai/ha)
45: Plant response rating (bluegrass; Preemergence, 125 g ai/ha)
25: Plant response rating, Ryegrass, Italian (ryegrass, Italian; 125 g ai/ha)

O=C1NCC(c2ccc(OC(F)F)cc2)C1C(=O)Nc1cccc(F)c1F (racemic) [Compound 350]
0: Plant response rating, Dayflower, VA (dayflower, VA; 31 g ai/ha) | Plant response rating, Dayflower, VA (dayflower, VA; 62 g ai/ha) | Plant response rating, Dayflower, VA (dayflower, VA; 125 g ai/ha) | Plant response rating, Corn (corn; 31 g ai/ha) | Plant response rating, Corn (corn; 62 g ai/ha) | Plant response rating, Corn (corn; 125 g ai/ha) | Plant response rating, Corn (corn; 250 g ai/ha)
40: Plant response rating, Dayflower, VA (dayflower, VA; 250 g ai/ha)

O=C1NCC(c2cc(F)c(F)cc2F)C1C(=O)Nc1cccc(F)c1F (centres unmarked) [Compound 50]
0: Plant response rating (bluegrass; Postemergence, 16 g ai/ha) | Plant response rating (bluegrass; Postemergence, 31 g ai/ha) | Plant response rating (bluegrass; Postemergence, 62 g ai/ha) | Plant response rating (bluegrass; Postemergence, 125 g ai/ha) | Plant response rating, Bluegrass (bluegrass; Preemergence, 62 g ai/ha) | Plant response rating, Bluegrass (bluegrass; Preemergence, 16 g ai/ha) | Plant response rating, Bluegrass (bluegrass; Preemergence, 31 g ai/ha) | Plant response rating (bluegrass; Preemergence, 125 g ai/ha) | Plant response rating (ryegrass, Italian; 16 g ai/ha) | Plant response rating (ryegrass, Italian; 31 g ai/ha) | Plant response rating (ryegrass, Italian; 62 g ai/ha) | Plant response rating (ryegrass, Italian; 125 g ai/ha) | Plant response rating, Ryegrass, Italian (ryegrass, Italian; 62 g ai/ha) | Plant response rating, Ryegrass, Italian (ryegrass, Italian; 125 g ai/ha) | Plant response rating, Ryegrass, Italian (ryegrass, Italian; 16 g ai/ha) | Plant response rating, Ryegrass, Italian (ryegrass, Italian; 31 g ai/ha) | Plant response rating (Russian thistle; 31 g ai/ha) | Plant response rating, Russian Thistle (Russian thistle; 62 g ai/ha) | Plant response rating, Russian Thistle (Russian thistle; 125 g ai/ha) | Plant response rating, Russian Thistle (Russian thistle; 16 g ai/ha) | Plant response rating, Russian Thistle (Russian thistle; 31 g ai/ha)
10: Plant response rating (Russian thistle; 62 g ai/ha)
5: Plant response rating (Russian thistle; 16 g ai/ha) | Plant response rating (Russian thistle; 125 g ai/ha)

O=C1NCC(c2ccc(Cl)c(F)c2)C1C(=O)Nc1cccc(F)c1F (centres unmarked) [Compound 52]
20: Plant response rating (bluegrass; Preemergence, 250 g ai/ha) | Plant response rating, Russian Thistle (Russian thistle; 125 g ai/ha)
30: Plant response rating, Russian Thistle (Russian thistle; 250 g ai/ha)
0: Plant response rating (bluegrass; Postemergence, 16 g ai/ha) | Plant response rating (bluegrass; Postemergence, 31 g ai/ha) | Plant response rating (bluegrass; Postemergence, 62 g ai/ha) | Plant response rating (bluegrass; Postemergence, 125 g ai/ha) | Plant response rating (bluegrass; Postemergence, 250 g ai/ha) | Plant response rating, Bluegrass (bluegrass; Preemergence, 62 g ai/ha) | Plant response rating, Bluegrass (bluegrass; Preemergence, 16 g ai/ha) | Plant response rating, Bluegrass (bluegrass; Preemergence, 31 g ai/ha) | Plant response rating (bluegrass; Preemergence, 125 g ai/ha) | Plant response rating (ryegrass, Italian; 16 g ai/ha) | Plant response rating (ryegrass, Italian; 31 g ai/ha) | Plant response rating (ryegrass, Italian; 62 g ai/ha) | Plant response rating (ryegrass, Italian; 125 g ai/ha) | Plant response rating (ryegrass, Italian; 250 g ai/ha) | Plant response rating, Ryegrass, Italian (ryegrass, Italian; 62 g ai/ha) | Plant response rating, Ryegrass, Italian (ryegrass, Italian; 125 g ai/ha) | Plant response rating, Ryegrass, Italian (ryegrass, Italian; 31 g ai/ha) | Plant response rating, Ryegrass, Italian (ryegrass, Italian; 250 g ai/ha) | Plant response rating (Russian thistle; 16 g ai/ha) | Plant response rating (Russian thistle; 31 g ai/ha) | Plant response rating (Russian thistle; 62 g ai/ha) | Plant response rating (Russian thistle; 125 g ai/ha) | Plant response rating (Russian thistle; 250 g ai/ha) | Plant response rating, Russian Thistle (Russian thistle; 62 g ai/ha) | Plant response rating, Russian Thistle (Russian thistle; 16 g ai/ha) | Plant response rating, Russian Thistle (Russian thistle; 31 g ai/ha)
40: Plant response rating, Ryegrass, Italian (ryegrass, Italian; 16 g ai/ha)

O=C1NCC(c2ccc(C(F)(F)F)cc2)C1C(=O)Nc1ccccc1F (centres unmarked) [Compound 231]
35: Plant response rating (Russian thistle; 62 g ai/ha) | Plant response rating (Russian thistle; 125 g ai/ha) | Plant response rating (Russian thistle; 250 g ai/ha)
25: Plant response rating (bluegrass; Preemergence, 250 g ai/ha)
30: Plant response rating, Russian Thistle (Russian thistle; 250 g ai/ha)
5: Plant response rating (bluegrass; Postemergence, 31 g ai/ha) | Plant response rating, Bluegrass (bluegrass; Preemergence, 31 g ai/ha) | Plant response rating, Russian Thistle (Russian thistle; 62 g ai/ha)
0: Plant response rating, Bluegrass (bluegrass; Preemergence, 62 g ai/ha) | Plant response rating (ryegrass, Italian; 31 g ai/ha) | Plant response rating (ryegrass, Italian; 62 g ai/ha) | Plant response rating (ryegrass, Italian; 125 g ai/ha) | Plant response rating (ryegrass, Italian; 250 g ai/ha) | Plant response rating, Ryegrass, Italian (ryegrass, Italian; 62 g ai/ha) | Plant response rating, Ryegrass, Italian (ryegrass, Italian; 125 g ai/ha) | Plant response rating, Ryegrass, Italian (ryegrass, Italian; 31 g ai/ha) | Plant response rating, Ryegrass, Italian (ryegrass, Italian; 250 g ai/ha) | Plant response rating, Russian Thistle (Russian thistle; 31 g ai/ha)
15: Plant response rating, Bluegrass (bluegrass; Preemergence, 125 g ai/ha) | Plant response rating, Russian Thistle (Russian thistle; 125 g ai/ha)
10: Plant response rating (bluegrass; Postemergence, 62 g ai/ha) | Plant response rating (bluegrass; Postemergence, 125 g ai/ha) | Plant response rating (bluegrass; Postemergence, 250 g ai/ha)
20: Plant response rating (Russian thistle; 31 g ai/ha)
